{"source": "patent US12552846B2", "about": "“Modified BCL9 mimetic peptides” (Sapience Therapeutics, Inc., priority 2019, dated 2026)", "test_system": "HL60 promyelocytic leukemia cells", "assay": "Cytotoxicity assay in HL60 cells (Annexin V FITC / PI flow cytometry)", "type": "cell-based", "conditions": "48 hours; for pEC50: 0-80 μM, % Viability (Annexin V low, PI low)", "method": "We examined the cytotoxicity of peptides BCL-26 and BCL-27 using an assay in HL60 promyelocytic leukemia cells. HL60 PML suspension cells were set at a density of 3.5×10^3 cells/well in 150 μL of RPMI+1.5% fetal bovine serum (FBS) in a 96 well dish. BCL-26 or BCL-27, reconstituted at a concentration of 10 mg/mL in 20 mM His, pH 7.5, was added to each well at a volume of 50 μL to a final concentration range of 0-80 μM. Cells were incubated with peptide for 48 hours at 37° C. Cell viability was quantified by flow cytometry using abcam Annexin V FITC apoptosis detection kit. Briefly, cells were washed with PBS and resuspended in 1× assay buffer containing Annexin V FITC and propidium iodide (PI). Annexin V detects apoptotic cells, and PI stains dead cells. After staining, apoptotic cells show green fluorescence, dead cells show red and green fluorescence, and live cells show little or no fluorescence. Cells were selected for analysis based on forward scatter (FSC) vs. side scatter (SSC), and analyzed by BD Accuri C6 Plus flow cytometer to detect Annexin V-FITC binding (Ex=488 nm; Em=530 nm) using FITC signal detector and PI staining by the phycoerythrnn emission signal detector. Percentage of Annexin V^low and PI^low were quantified and presented as % Viability.\nWe examined the cytotoxicity of additional retro inverso and mixed chirality BCL9 mimetic peptides in HL60 cells using the assay described above.", "note": "pEC50: −log10 of the molar value. Square brackets hold non-standard residues; d marks the D form. Peptide text beside a SMILES is read from it. d1Nal = N[C@H](Cc1cccc2ccccc12)C(=O)O; d2Nal = N[C@H](Cc1ccc2ccccc2c1)C(=O)O", "data": [{"smiles": "CC(C)C[C@@H](NC(=O)[C@@H](CCC(N)=O)NC(=O)[C@@H](C)NC(=O)[C@@H](CC(C)C)NC(=O)[C@@H](CCCNC(=N)N)NC(=O)[C@@H](C)NC(=O)[C@@H](CC(C)C)NC(=O)[C@@H](CCC(N)=O)NC(=O)[C@@H](CCCNC(=N)N)NC(=O)[C@@H](C)NC(=O)[C@@H](CC(C)C)NC(=O)[C@@H](Cc1c[nH]c2ccccc12)NC(=O)[C@H](N)Cc1c[nH]c2ccccc12)C(=O)N[C@H](C)C(=O)O", "note": "[BCL-12] (H-[dW][dW][dL][dA][dR][dQ][dL][dA][dR][dL][dA][dQ][dL][dA]-OH; N-terminus and C-terminus assumed)", "values": [{"measurement": "cytotoxic activity", "result": "no cytotoxic activity"}, {"measurement": "pEC50", "result": "< 4.10"}]}, {"smiles": "CC(C)C[C@@H](NC(=O)[C@@H](Cc1c[nH]c2ccccc12)NC(=O)[C@H](N)Cc1c[nH]c2ccccc12)C(=O)N[C@H](C)C(=O)N[C@H](CCCNC(=N)N)C(=O)N[C@H](CCC(N)=O)C(=O)N[C@H](CC(C)C)C(=O)N[C@H](CCC(=O)O)C(=O)N[C@H](CCCNC(=N)N)C(=O)N[C@H](CC(C)C)C(=O)N[C@H](C)C(=O)N[C@H](CCC(N)=O)C(=O)N[C@H](CC(C)C)C(=O)N[C@H](C)C(=O)N[C@H](CCCCN)C(=O)N[C@H](CC(C)C)C(=O)N[C@@H](C(=O)N1CCC[C@@H]1C(=O)N[C@@H](C(=O)O)C(C)C)[C@H](C)O", "note": "[BCL-76] (H-[dW][dW][dL][dA][dR][dQ][dL][dE][dR][dL][dA][dQ][dL][dA][dK][dL][dT][dP][dV]-OH; N-terminus and C-terminus assumed)", "values": [{"measurement": "pEC50", "result": "< 5.00"}]}, {"smiles": "CC(C)C[C@@H](NC(=O)[C@@H](Cc1c[nH]c2ccccc12)NC(=O)[C@H](N)Cc1cccc2ccccc12)C(=O)N[C@H](C)C(=O)N[C@H](CCCNC(=N)N)C(=O)N[C@H](CCC(N)=O)C(=O)N[C@H](CC(C)C)C(=O)N[C@H](C)C(=O)N[C@H](CCCNC(=N)N)C(=O)N[C@H](CC(C)C)C(=O)N[C@H](C)C(=O)N[C@H](CCC(N)=O)C(=O)N[C@H](CC(C)C)C(=O)N[C@H](C)C(=O)N[C@H](CCCCN)C(=O)N[C@H](CC(C)C)C(=O)N[C@@H](C(=O)N1CCC[C@@H]1C(=O)N[C@@H](C(=O)O)C(C)C)[C@H](C)O", "note": "[BCL-77] (H-[d1Nal][dW][dL][dA][dR][dQ][dL][dA][dR][dL][dA][dQ][dL][dA][dK][dL][dT][dP][dV]-OH; N-terminus and C-terminus assumed)", "values": [{"measurement": "pEC50", "result": "> 5.70"}]}, {"smiles": "CC(C)C[C@@H](NC(=O)[C@@H](Cc1c[nH]c2ccccc12)NC(=O)[C@H](N)Cc1ccc2ccccc2c1)C(=O)N[C@H](C)C(=O)N[C@H](CCCNC(=N)N)C(=O)N[C@H](CCC(N)=O)C(=O)N[C@H](CC(C)C)C(=O)N[C@H](C)C(=O)N[C@H](CCCNC(=N)N)C(=O)N[C@H](CC(C)C)C(=O)N[C@H](C)C(=O)N[C@H](CCC(N)=O)C(=O)N[C@H](CC(C)C)C(=O)N[C@H](C)C(=O)N[C@H](CCCCN)C(=O)N[C@H](CC(C)C)C(=O)N[C@@H](C(=O)N1CCC[C@@H]1C(=O)N[C@@H](C(=O)O)C(C)C)[C@H](C)O", "note": "[BCL-78] (H-[d2Nal][dW][dL][dA][dR][dQ][dL][dA][dR][dL][dA][dQ][dL][dA][dK][dL][dT][dP][dV]-OH; N-terminus and C-terminus assumed)", "values": [{"measurement": "pEC50", "result": "> 5.70"}]}, {"smiles": "CC(C)C[C@@H](NC(=O)[C@@H](Cc1c[nH]c2ccccc12)NC(=O)[C@H](N)Cc1ccccc1)C(=O)N[C@H](C)C(=O)N[C@H](CCCNC(=N)N)C(=O)N[C@H](CCC(N)=O)C(=O)N[C@H](CC(C)C)C(=O)N[C@H](C)C(=O)N[C@H](CCCNC(=N)N)C(=O)N[C@H](CC(C)C)C(=O)N[C@H](C)C(=O)N[C@H](CCC(N)=O)C(=O)N[C@H](CC(C)C)C(=O)N[C@H](C)C(=O)N[C@H](CCCCN)C(=O)N[C@H](CC(C)C)C(=O)N[C@@H](C(=O)N1CCC[C@@H]1C(=O)N[C@@H](C(=O)O)C(C)C)[C@H](C)O", "note": "[BCL-79] (H-[dF][dW][dL][dA][dR][dQ][dL][dA][dR][dL][dA][dQ][dL][dA][dK][dL][dT][dP][dV]-OH; N-terminus and C-terminus assumed)", "values": [{"measurement": "pEC50", "result": "> 5.70"}]}, {"smiles": "CC(C)C[C@@H](NC(=O)[C@@H](Cc1c[nH]c2ccccc12)NC(=O)[C@H](N)Cc1c[nH]c2ccccc12)C(=O)N[C@H](C)C(=O)N[C@H](CCCNC(=N)N)C(=O)N[C@H](CCC(N)=O)C(=O)N[C@H](CC(C)C)C(=O)N[C@H](C)C(=O)N[C@H](CCCNC(=N)N)C(=O)N[C@H](CC(C)C)C(=O)N[C@H](CCCNC(=N)N)C(=O)N[C@H](CCC(N)=O)C(=O)N[C@H](CC(C)C)C(=O)N[C@H](C)C(=O)N[C@H](CCCCN)C(=O)N[C@H](CC(C)C)C(=O)N[C@@H](C(=O)N1CCC[C@@H]1C(=O)N[C@@H](C(=O)O)C(C)C)[C@H](C)O", "note": "[BCL-80] (H-[dW][dW][dL][dA][dR][dQ][dL][dA][dR][dL][dR][dQ][dL][dA][dK][dL][dT][dP][dV]-OH; N-terminus and C-terminus assumed)", "values": [{"measurement": "pEC50", "result": "> 5.70"}]}, {"smiles": "CC(C)C[C@@H](NC(=O)[C@@H](Cc1ccccc1)NC(=O)[C@H](N)Cc1c[nH]c2ccccc12)C(=O)N[C@H](C)C(=O)N[C@H](CCCNC(=N)N)C(=O)N[C@H](CCC(N)=O)C(=O)N[C@H](CC(C)C)C(=O)N[C@H](C)C(=O)N[C@H](CCCNC(=N)N)C(=O)N[C@H](CC(C)C)C(=O)N[C@H](C)C(=O)N[C@H](CCC(N)=O)C(=O)N[C@H](CC(C)C)C(=O)N[C@H](C)C(=O)N[C@H](CCCCN)C(=O)N[C@H](CC(C)C)C(=O)N[C@@H](C(=O)N1CCC[C@@H]1C(=O)N[C@@H](C(=O)O)C(C)C)[C@H](C)O", "note": "[BCL-81] (H-[dW][dF][dL][dA][dR][dQ][dL][dA][dR][dL][dA][dQ][dL][dA][dK][dL][dT][dP][dV]-OH; N-terminus and C-terminus assumed)", "values": [{"measurement": "pEC50", "result": "5.00 to 5.70"}]}, {"smiles": "CC(C)C[C@@H](NC(=O)[C@H](N)Cc1c[nH]c2ccccc12)C(=O)N[C@H](CC(C)C)C(=O)N[C@H](C)C(=O)N[C@H](CCCNC(=N)N)C(=O)N[C@H](CCC(N)=O)C(=O)N[C@H](CC(C)C)C(=O)N[C@H](C)C(=O)N[C@H](CCCNC(=N)N)C(=O)N[C@H](CC(C)C)C(=O)N[C@H](C)C(=O)N[C@H](CCC(N)=O)C(=O)N[C@H](CC(C)C)C(=O)N[C@H](C)C(=O)N[C@H](CCCCN)C(=O)N[C@H](CC(C)C)C(=O)N[C@@H](C(=O)N1CCC[C@@H]1C(=O)N[C@@H](C(=O)O)C(C)C)[C@H](C)O", "note": "[BCL-82] (H-[dW][dL][dL][dA][dR][dQ][dL][dA][dR][dL][dA][dQ][dL][dA][dK][dL][dT][dP][dV]-OH; N-terminus and C-terminus assumed)", "values": [{"measurement": "pEC50", "result": "5.00 to 5.70"}]}, {"smiles": "CC(C)C[C@@H](NC(=O)[C@@H](CCCNC(=N)N)NC(=O)[C@@H](C)NC(=O)[C@@H](CC(C)C)NC(=O)[C@@H](CCC(N)=O)NC(=O)[C@@H](CCCNC(=N)N)NC(=O)[C@@H](CCC(=O)O)NC(=O)[C@@H](CC(C)C)NC(=O)[C@@H](Cc1c[nH]c2ccccc12)NC(=O)[C@H](N)Cc1c[nH]c2ccccc12)C(=O)N[C@H](C)C(=O)N[C@H](CCC(N)=O)C(=O)N[C@H](CC(C)C)C(=O)N[C@H](C)C(=O)N[C@H](CCCCN)C(=O)N[C@H](CC(C)C)C(=O)N[C@@H](C(=O)N1CCC[C@@H]1C(=O)N[C@@H](C(=O)O)C(C)C)[C@H](C)O", "note": "[BCL-83] (H-[dW][dW][dL][dE][dR][dQ][dL][dA][dR][dL][dA][dQ][dL][dA][dK][dL][dT][dP][dV]-OH; N-terminus and C-terminus assumed)", "values": [{"measurement": "pEC50", "result": "5.00 to 5.70"}]}, {"smiles": "CC(C)C[C@@H](NC(=O)[C@@H](Cc1c[nH]c2ccccc12)NC(=O)[C@H](N)Cc1c[nH]c2ccccc12)C(=O)N[C@H](C)C(=O)N[C@H](CCCNC(=N)N)C(=O)N[C@H](CCC(N)=O)C(=O)N[C@H](CC(C)C)C(=O)N[C@H](C)C(=O)N[C@H](CCCNC(=N)N)C(=O)N[C@H](CC(C)C)C(=O)N[C@H](C)C(=O)N[C@H](CCC(N)=O)C(=O)N[C@H](CC(C)C)C(=O)N[C@H](C)C(=O)N[C@H](CCCNC(=N)N)C(=O)N[C@H](CCC(=O)O)C(=O)N[C@H](CCCNC(=N)N)C(=O)N[C@H](Cc1c[nH]cn1)C(=O)N[C@H](CCC(=O)O)C(=O)N[C@H](CC(C)C)C(=O)N[C@H](CCC(N)=O)C(=O)N[C@H](CCC(=O)O)C(=O)N[C@H](CCC(N)=O)C(=O)N[C@H](CO)C(=O)N[C@H](CC(C)C)C(=O)N[C@H](CCCCN)C(=O)N[C@H](CC(C)C)C(=O)N[C@@H](C(=O)N1CCC[C@@H]1C(=O)N[C@@H](C(=O)O)C(C)C)[C@H](C)O", "note": "[BCL-84] (H-[dW][dW][dL][dA][dR][dQ][dL][dA][dR][dL][dA][dQ][dL][dA][dR][dE][dR][dH][dE][dL][dQ][dE][dQ][dS][dL][dK][dL][dT][dP][dV]-OH; N-terminus and C-terminus assumed)", "values": [{"measurement": "pEC50", "result": "> 5.70"}]}, {"smiles": "CC(C)C[C@@H](NC(=O)[C@@H](Cc1c[nH]c2ccccc12)NC(=O)[C@H](N)Cc1c[nH]c2ccccc12)C(=O)N[C@H](C)C(=O)N[C@H](CCCNC(=N)N)C(=O)N[C@H](CCC(N)=O)C(=O)N[C@H](CC(C)C)C(=O)N[C@H](C)C(=O)N[C@H](CCCNC(=N)N)C(=O)N[C@H](CC(C)C)C(=O)N[C@H](CCC(N)=O)C(=O)N[C@H](CCC(N)=O)C(=O)N[C@H](CC(C)C)C(=O)N[C@H](C)C(=O)N[C@H](CCCCN)C(=O)N[C@H](CC(C)C)C(=O)N[C@@H](C(=O)N1CCC[C@@H]1C(=O)N[C@@H](C(=O)O)C(C)C)[C@H](C)O", "note": "[BCL-85] (H-[dW][dW][dL][dA][dR][dQ][dL][dA][dR][dL][dQ][dQ][dL][dA][dK][dL][dT][dP][dV]-OH; N-terminus and C-terminus assumed)", "values": [{"measurement": "pEC50", "result": "> 5.70"}]}]}
